pIC50: −log10 of the molar value. Values belong to the compound of their own block, whether it stands above or below them. Active and inactive are the calls of the source. The rule behind the calls is not given here.
How the values were obtained:
[1] = biological target: cGMP-specific 3',5'-cyclic phosphodiesterase (Homo sapiens, UniProt O76074); assay: Inhibition of human PDE5A1 (535-860 residues) expressed in Escherichia coli BL21 incubated for 15 mins using [3H]-cGMP as substrate by liquid scintillation counting method
Homo sapiens = organism: Homo sapiens; assay: Selectivity index, ratio of IC50 for human PDE6C to IC50 for human PDE5A1
[2] = test system: COc1ccc2c3c([nH]c2c1)[C@@H]1N(CC3)C(=O)c2c(OC)cccc2N1C; assay: Negative allosteric modulator activity at human PDE5A1 (535-860 residues) expressed in Escherichia coli BL21 assessed as Kcat/Km ratio for cGMP at 200 nM incubated for 15 mins using [3H]-cGMP as substrate by liquid scintillation counting method (reference value: 0.6 +/- 0.04 /s/microM); settings: filed as negative allosteric modulator
[3] = test system: COc1ccc2c3c([nH]c2c1)[C@@H]1N(CC3)C(=O)c2c(OC)cccc2N1C; assay: Negative allosteric modulator activity at human PDE5A1 (535-860 residues) expressed in Escherichia coli BL21 assessed as Km for cGMP at 200 nM incubated for 15 mins using [3H]-cGMP as substrate by liquid scintillation counting method (reference value: 4.22 +/- 0.45 uM); settings: filed as negative allosteric modulator
[4] = test system: COc1ccc2c3c([nH]c2c1)[C@@H]1N(CC3)C(=O)c2c(OC)cccc2N1C; assay: Negative allosteric modulator activity at human PDE5A1 (535-860 residues) expressed in Escherichia coli BL21 assessed as Kcat/Km ratio for cGMP at 25 nM incubated for 15 mins using [3H]-cGMP as substrate by liquid scintillation counting method (reference value: 0.6 +/- 0.04 /s/microM); settings: filed as negative allosteric modulator
[5] = test system: COc1ccc2c3c([nH]c2c1)[C@@H]1N(CC3)C(=O)c2c(OC)cccc2N1C; assay: Negative allosteric modulator activity at human PDE5A1 (535-860 residues) expressed in Escherichia coli BL21 assessed as Kcat for cGMP at 25 nM incubated for 15 mins using [3H]-cGMP as substrate by liquid scintillation counting method (reference value: 2.53 +/- 0.24 /s); settings: filed as negative allosteric modulator
[6] = test system: COc1ccc2c3c([nH]c2c1)[C@@H]1N(CC3)C(=O)c2c(OC)cccc2N1C; assay: Negative allosteric modulator activity at human PDE5A1 (535-860 residues) expressed in Escherichia coli BL21 assessed as Kcat for cGMP at 200 nM incubated for 15 mins using [3H]-cGMP as substrate by liquid scintillation counting method (reference value: 2.53 +/- 0.24 /s); settings: filed as negative allosteric modulator
[7] = test system: COc1ccc2c3c([nH]c2c1)[C@@H]1N(CC3)C(=O)c2c(OC)cccc2N1C; assay: Negative allosteric modulator activity at human PDE5A1 (535-860 residues) expressed in Escherichia coli BL21 assessed as Kcat for cGMP at 100 nM incubated for 15 mins using [3H]-cGMP as substrate by liquid scintillation counting method (reference value: 2.53 +/- 0.24 /s); settings: filed as negative allosteric modulator
[8] = test system: COc1ccc2c3c([nH]c2c1)[C@@H]1N(CC3)C(=O)c2c(OC)cccc2N1C; assay: Negative allosteric modulator activity at human PDE5A1 (535-860 residues) expressed in Escherichia coli BL21 assessed as Km for cGMP at 50 nM incubated for 15 mins using [3H]-cGMP as substrate by liquid scintillation counting method (reference value: 4.22 +/- 0.45 uM); settings: filed as negative allosteric modulator
[9] = test system: COc1ccc2c3c([nH]c2c1)[C@@H]1N(CC3)C(=O)c2c(OC)cccc2N1C; assay: Negative allosteric modulator activity at human PDE5A1 (535-860 residues) expressed in Escherichia coli BL21 assessed as Kcat/Km ratio for cGMP at 50 nM incubated for 15 mins using [3H]-cGMP as substrate by liquid scintillation counting method (reference value: 0.6 +/- 0.04 /s/microM); settings: filed as negative allosteric modulator
[10] = test system: COc1ccc2c3c([nH]c2c1)[C@@H]1N(CC3)C(=O)c2c(OC)cccc2N1C; assay: Negative allosteric modulator activity at human PDE5A1 (535-860 residues) expressed in Escherichia coli BL21 assessed as Kcat for cGMP at 50 nM incubated for 15 mins using [3H]-cGMP as substrate by liquid scintillation counting method (reference value: 2.53 +/- 0.24 /s); settings: filed as negative allosteric modulator
[11] = test system: COc1ccc2c3c([nH]c2c1)[C@@H]1N(CC3)C(=O)c2c(OC)cccc2N1C; assay: Negative allosteric modulator activity at human PDE5A1 (535-860 residues) expressed in Escherichia coli BL21 assessed as Kcat/Km ratio for cGMP at 100 nM incubated for 15 mins using [3H]-cGMP as substrate by liquid scintillation counting method (reference value: 0.6 +/- 0.04 /s/microM); settings: filed as negative allosteric modulator
[12] = test system: COc1ccc2c3c([nH]c2c1)[C@@H]1N(CC3)C(=O)c2c(OC)cccc2N1C; assay: Negative allosteric modulator activity at human PDE5A1 (535-860 residues) expressed in Escherichia coli BL21 assessed as Km for cGMP at 100 nM incubated for 15 mins using [3H]-cGMP as substrate by liquid scintillation counting method (reference value: 4.22 +/- 0.45 uM); settings: filed as negative allosteric modulator
[13] = test system: COc1ccc2c3c([nH]c2c1)[C@@H]1N(CC3)C(=O)c2c(OC)cccc2N1C; assay: Negative allosteric modulator activity at human PDE5A1 (535-860 residues) expressed in Escherichia coli BL21 assessed as Km for cGMP at 25 nM incubated for 15 mins using [3H]-cGMP as substrate by liquid scintillation counting method (reference value: 4.22 +/- 0.45 uM); settings: filed as negative allosteric modulator
[14] = Inhibition of human PDE5A1 D563A mutant expressed in Escherichia coli BL21 incubated for 15 mins using [3H]-cGMP as substrate by liquid scintillation counting method
[15] = biological target: Dual 3',5'-cyclic-AMP and -GMP phosphodiesterase 11A (Homo sapiens, UniProt Q9HCR9); assay: Inhibition of PDE11A catalytic domain (unknown origin) using [3H]-cAMP or [3H]-[…] as substrate after 15 mins by liquid scintillation counting method
Dual 3',5'-cyclic-AMP and -GMP phosphodiesterase 11A, sequence (Q9HCR9 whole entry, the tested form may be a part): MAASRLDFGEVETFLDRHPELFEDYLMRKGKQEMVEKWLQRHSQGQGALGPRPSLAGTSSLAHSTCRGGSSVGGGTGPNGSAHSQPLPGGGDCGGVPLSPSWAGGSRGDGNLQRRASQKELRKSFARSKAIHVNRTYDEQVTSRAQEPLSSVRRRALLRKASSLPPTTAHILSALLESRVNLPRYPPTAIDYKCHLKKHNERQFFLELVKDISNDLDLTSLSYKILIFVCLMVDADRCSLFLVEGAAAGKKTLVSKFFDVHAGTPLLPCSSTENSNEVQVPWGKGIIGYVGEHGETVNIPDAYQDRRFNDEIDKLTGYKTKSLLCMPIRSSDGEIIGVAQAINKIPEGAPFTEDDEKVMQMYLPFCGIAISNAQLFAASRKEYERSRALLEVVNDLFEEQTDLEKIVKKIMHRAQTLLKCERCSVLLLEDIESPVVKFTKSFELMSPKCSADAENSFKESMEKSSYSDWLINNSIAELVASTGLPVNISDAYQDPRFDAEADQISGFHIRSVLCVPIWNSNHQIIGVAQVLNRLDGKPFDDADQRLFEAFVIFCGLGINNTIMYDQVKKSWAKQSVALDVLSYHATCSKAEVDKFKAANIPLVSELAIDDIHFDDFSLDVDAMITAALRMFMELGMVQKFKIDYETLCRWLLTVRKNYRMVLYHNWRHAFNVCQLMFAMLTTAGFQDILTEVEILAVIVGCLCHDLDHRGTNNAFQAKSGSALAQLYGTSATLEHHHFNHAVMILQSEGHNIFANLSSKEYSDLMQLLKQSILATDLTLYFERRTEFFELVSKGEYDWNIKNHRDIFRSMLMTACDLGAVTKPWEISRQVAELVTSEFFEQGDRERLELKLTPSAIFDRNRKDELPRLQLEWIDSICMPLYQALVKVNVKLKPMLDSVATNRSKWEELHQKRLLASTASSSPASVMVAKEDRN

[16] = biological target: Dual specificity calcium/calmodulin-dependent 3',5'-cyclic nucleotide phosphodiesterase 1B (Homo sapiens, UniProt Q01064); assay: Inhibition of human PDE1B (10-487 residues) expressed in Sf9 cells incubated for 15 mins using [3H]-cGMP as substrate by liquid scintillation counting method
Dual specificity calcium/calmodulin-dependent 3',5'-cyclic nucleotide phosphodiesterase 1B, sequence (Q01064 whole entry, the tested form may be a part): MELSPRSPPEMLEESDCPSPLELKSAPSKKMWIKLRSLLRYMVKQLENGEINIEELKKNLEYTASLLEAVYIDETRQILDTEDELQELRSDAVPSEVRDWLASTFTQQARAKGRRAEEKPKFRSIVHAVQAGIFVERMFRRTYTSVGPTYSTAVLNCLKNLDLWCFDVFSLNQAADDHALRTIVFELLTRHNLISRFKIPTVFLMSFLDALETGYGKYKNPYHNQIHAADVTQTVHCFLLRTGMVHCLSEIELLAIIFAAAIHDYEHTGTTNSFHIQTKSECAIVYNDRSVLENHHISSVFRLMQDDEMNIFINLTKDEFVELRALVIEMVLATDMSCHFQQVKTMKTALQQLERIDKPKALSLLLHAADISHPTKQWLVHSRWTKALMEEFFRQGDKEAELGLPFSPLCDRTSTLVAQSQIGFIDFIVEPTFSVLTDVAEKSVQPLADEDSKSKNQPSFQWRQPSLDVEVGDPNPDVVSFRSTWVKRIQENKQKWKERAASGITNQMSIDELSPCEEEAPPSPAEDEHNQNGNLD

[17] = biological target: T1, DNA topoisomerase 1 (Homo sapiens) (UniProt P11387); assay: Inhibition of Top (unknown origin) mediated supercoiled DNA relaxation at 100 uM
T1 sequence (whole entry): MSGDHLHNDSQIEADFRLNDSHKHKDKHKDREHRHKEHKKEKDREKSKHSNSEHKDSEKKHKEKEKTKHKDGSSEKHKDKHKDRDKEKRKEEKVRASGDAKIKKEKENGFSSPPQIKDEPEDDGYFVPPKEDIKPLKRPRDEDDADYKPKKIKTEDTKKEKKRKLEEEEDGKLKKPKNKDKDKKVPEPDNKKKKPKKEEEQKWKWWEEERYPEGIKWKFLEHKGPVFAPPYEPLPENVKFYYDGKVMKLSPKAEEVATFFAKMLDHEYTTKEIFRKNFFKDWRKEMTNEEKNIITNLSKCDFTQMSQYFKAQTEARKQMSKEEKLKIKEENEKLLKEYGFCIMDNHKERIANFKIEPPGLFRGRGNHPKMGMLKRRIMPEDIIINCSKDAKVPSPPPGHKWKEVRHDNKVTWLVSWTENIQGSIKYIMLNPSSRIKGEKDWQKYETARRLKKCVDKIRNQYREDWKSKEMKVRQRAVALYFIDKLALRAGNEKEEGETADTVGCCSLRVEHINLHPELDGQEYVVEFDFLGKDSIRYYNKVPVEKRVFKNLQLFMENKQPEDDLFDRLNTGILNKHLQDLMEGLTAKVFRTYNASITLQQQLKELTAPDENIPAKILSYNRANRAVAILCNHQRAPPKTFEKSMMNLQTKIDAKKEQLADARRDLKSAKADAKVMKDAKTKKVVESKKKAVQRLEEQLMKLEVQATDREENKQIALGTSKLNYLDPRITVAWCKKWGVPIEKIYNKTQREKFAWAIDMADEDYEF

[18] = biological target: cAMP and cAMP-inhibited cGMP 3',5'-cyclic phosphodiesterase 10A (Homo sapiens, UniProt Q9Y233); assay: Inhibition of human PDE10A catalytic domain (449 to 770 residues) using [3H]-cAMP as substrate after 15 mins by liquid scintillation counting method
cAMP and cAMP-inhibited cGMP 3',5'-cyclic phosphodiesterase 10A, sequence (Q9Y233 whole entry, the tested form may be a part): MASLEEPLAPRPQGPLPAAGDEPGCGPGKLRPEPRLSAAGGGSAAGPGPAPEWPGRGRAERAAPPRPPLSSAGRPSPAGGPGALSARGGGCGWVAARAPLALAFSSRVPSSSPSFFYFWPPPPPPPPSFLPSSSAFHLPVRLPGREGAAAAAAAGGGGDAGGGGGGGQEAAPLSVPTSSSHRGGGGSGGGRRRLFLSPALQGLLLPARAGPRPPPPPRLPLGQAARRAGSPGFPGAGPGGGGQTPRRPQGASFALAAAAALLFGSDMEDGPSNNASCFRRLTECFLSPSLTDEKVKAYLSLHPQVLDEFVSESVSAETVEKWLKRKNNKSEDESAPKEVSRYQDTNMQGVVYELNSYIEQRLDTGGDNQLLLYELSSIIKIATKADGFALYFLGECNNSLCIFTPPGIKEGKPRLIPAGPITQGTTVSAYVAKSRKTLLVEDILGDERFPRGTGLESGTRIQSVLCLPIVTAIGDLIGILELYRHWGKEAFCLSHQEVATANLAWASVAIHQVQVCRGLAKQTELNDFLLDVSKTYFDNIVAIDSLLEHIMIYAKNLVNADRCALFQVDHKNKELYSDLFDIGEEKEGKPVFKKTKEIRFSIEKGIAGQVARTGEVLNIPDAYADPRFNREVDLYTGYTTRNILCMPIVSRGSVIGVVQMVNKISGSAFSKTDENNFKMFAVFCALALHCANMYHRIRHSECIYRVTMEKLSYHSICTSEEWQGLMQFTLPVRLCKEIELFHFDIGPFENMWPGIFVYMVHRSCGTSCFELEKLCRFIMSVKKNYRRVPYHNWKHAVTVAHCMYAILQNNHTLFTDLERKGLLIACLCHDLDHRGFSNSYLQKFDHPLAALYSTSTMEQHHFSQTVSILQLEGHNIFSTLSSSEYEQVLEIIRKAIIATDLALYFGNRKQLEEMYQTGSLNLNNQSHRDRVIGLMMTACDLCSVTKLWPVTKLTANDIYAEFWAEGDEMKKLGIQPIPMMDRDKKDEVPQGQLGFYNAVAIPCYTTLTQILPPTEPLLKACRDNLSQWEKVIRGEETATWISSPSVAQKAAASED

[19] = biological target: DNA topoisomerase 2-alpha (Homo sapiens) (UniProt P11388); assay: Inhibition of Top2 (unknown origin) mediated supercoiled DNA relaxation at 100 uM
DNA topoisomerase 2-alpha (Homo sapiens), sequence (P11388 whole entry, the tested form may be a part): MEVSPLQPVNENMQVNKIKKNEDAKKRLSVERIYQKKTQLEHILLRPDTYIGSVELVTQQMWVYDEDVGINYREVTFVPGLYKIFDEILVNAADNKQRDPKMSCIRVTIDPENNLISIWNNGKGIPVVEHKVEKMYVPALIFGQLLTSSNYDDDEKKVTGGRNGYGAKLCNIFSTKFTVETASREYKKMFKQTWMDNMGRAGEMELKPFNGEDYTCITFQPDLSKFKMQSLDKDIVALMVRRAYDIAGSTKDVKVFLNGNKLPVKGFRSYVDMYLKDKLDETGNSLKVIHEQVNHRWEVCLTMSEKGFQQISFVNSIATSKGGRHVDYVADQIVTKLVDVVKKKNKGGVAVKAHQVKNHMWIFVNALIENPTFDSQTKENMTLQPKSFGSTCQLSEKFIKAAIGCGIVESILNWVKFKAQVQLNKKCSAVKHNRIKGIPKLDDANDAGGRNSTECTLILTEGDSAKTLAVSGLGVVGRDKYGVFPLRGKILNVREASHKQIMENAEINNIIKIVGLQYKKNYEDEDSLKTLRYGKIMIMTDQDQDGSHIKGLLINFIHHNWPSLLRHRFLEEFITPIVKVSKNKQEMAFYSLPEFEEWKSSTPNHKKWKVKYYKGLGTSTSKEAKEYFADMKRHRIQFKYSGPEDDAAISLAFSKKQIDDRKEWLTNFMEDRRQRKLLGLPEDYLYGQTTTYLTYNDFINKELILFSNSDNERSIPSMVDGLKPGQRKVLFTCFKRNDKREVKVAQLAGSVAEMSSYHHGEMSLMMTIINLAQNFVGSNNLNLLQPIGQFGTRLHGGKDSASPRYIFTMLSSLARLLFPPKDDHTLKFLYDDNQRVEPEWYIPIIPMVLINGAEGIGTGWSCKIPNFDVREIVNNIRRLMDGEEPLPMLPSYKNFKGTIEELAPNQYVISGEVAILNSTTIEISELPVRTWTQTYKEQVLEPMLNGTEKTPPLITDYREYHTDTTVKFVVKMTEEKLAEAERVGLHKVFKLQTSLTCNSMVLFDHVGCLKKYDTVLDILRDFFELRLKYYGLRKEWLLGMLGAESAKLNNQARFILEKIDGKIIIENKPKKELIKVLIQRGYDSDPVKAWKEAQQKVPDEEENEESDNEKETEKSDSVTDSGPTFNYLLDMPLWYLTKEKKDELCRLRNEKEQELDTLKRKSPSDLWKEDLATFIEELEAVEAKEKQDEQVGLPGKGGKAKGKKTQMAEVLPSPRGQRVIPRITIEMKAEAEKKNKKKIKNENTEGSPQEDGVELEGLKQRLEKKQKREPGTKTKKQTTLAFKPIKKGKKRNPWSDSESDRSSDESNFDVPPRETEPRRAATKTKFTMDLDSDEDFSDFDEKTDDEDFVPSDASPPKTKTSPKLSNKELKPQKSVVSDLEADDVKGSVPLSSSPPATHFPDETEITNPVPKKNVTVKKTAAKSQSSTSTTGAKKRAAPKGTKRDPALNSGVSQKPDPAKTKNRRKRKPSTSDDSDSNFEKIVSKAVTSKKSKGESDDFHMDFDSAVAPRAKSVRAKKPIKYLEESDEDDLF

[20] = biological target: High affinity 3',5'-cyclic-AMP phosphodiesterase 7A (Homo sapiens, UniProt Q13946); assay: Inhibition of PDE7A1 catalytic domain (130 to 482 residues) (unknown origin) using [3H]-cAMP as substrate after 15 mins by liquid scintillation counting method
High affinity 3',5'-cyclic-AMP phosphodiesterase 7A, sequence (Q13946 whole entry, the tested form may be a part): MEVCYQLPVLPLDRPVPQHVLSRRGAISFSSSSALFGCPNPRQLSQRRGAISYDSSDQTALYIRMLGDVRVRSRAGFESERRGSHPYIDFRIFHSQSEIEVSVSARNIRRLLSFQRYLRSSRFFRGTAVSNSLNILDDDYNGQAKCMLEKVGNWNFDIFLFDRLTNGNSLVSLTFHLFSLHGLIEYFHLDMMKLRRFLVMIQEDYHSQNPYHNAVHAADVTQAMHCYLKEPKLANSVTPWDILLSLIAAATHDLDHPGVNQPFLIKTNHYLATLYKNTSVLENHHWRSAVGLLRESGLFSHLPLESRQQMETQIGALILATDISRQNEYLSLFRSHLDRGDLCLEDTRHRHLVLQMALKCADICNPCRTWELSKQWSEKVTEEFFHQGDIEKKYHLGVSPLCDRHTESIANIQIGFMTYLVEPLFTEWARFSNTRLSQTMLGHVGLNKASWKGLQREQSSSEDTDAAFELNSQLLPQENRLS

Compound: COc1cccc2c1C(=O)N1CCc3c([nH]c4ccccc34)[C@H]1N2C
- pIC50 [1]: 6.96
- Ratio IC50 (Homo sapiens): > 190

Compound: cGMP-specific 3',5'-cyclic phosphodiesterase (Homo sapiens) (from UniProt O76074)
- kcat/Km [2]: 84000 M⁻¹ s⁻¹
- Km [3]: 12.5 µM
- kcat/Km [4]: 170000 M⁻¹ s⁻¹
- kcat [5]: 1.99 s⁻¹
- kcat [6]: 1.05 s⁻¹
- kcat [7]: 1.48 s⁻¹
- Km [8]: 11.8 µM
- kcat/Km [9]: 130000 M⁻¹ s⁻¹
- kcat [10]: 1.51 s⁻¹
- kcat/Km [11]: 110000 M⁻¹ s⁻¹
- Km [12]: 13.2 µM
- Km [13]: 11.8 µM

Compound: CN1c2ccccc2C(=O)N2CCc3c([nH]c4ccccc34)[C@H]21
- pIC50 [1]: 5.89

Compound: COc1ccc2c3c([nH]c2c1)[C@H]1N(CC3)C(=O)c2c(OC)cccc2N1C
- pIC50 [1]: < 5.00

Compound: COc1cccc2c1C(=O)N1CCc3c([nH]c4ccccc34)C1N2C (stereo not drawn)
- pIC50 [1]: 6.47
- Ratio IC50 (Homo sapiens): > 64

Compound: COc1ccc2c3c([nH]c2c1)C1N(CC3)C(=O)c2c(OC)cccc2N1C (stereo not drawn)
- pIC50 [1]: 7.28

Other lines, results leading:

- pIC50 [1]: < 4.30
Compound: CN1c2ccccc2C(=O)N2CCc3c([nH]c4ccccc34)[C@@H]21 [EVODIAMINE]

- pIC50 [1]: 6.38
Compound: CN1c2cccc(O)c2C(=O)N2CCc3c([nH]c4ccccc34)[C@H]21

- pIC50 [1]: 5.77
Compound: CN1c2cccc(O)c2C(=O)N2CCc3c([nH]c4ccccc34)C21 (stereo not drawn)

- pIC50 [1]: 5.59
Compound: COc1cccc2c1C(=O)N1CCc3c([nH]c4ccccc34)[C@@H]1N2C

- pIC50 [14]: 8.92
Compound: CCCc1nn(C)c2c(=O)[nH]c(-c3cc(S(=O)(=O)N4CCN(C)CC4)ccc3OCC)nc12

- pIC50 [1]: 5.68
Compound: CN1c2ccccc2C(=O)N2CCc3c([nH]c4ccccc34)C21 (stereo not drawn)

- pIC50 [1]: < 5.00
Compound: CN1c2cccc(O)c2C(=O)N2CCc3c([nH]c4ccccc34)[C@@H]21

- pIC50 [15]: < 4.70
- pIC50 [16]: < 4.70
- inhibition [17]: inactive
- pIC50 [1]: 7.46
- pIC50 [18]: 5.66
- inhibition [19]: inactive
- pIC50 [20]: < 4.70
Compound: COc1cccc2c1C(=O)N1CCc3c([nH]c4cccc(OC)c34)[C@H]1N2C

Reference: ChEMBL document CHEMBL4725363 (J Med Chem, 2020)
